Test results as given in PubChem BioAssay (NCI).
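Growth conditions: 96-well plates. Treatment: test compound, 48 hours, 5 concentrations. Analysis: linear interpolation between bracketing concentrations; unreached endpoints set to highest concentration. GI50 is the concentration that inhibits growth by half. TGI denotes the concentration required for complete inhibition of growth.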

Tests used:
Test in all cases: NCI-60 cell line screen, 48 h
OVCAR-3 ovarian = test system: OVCAR-3 ovarian
HCT-15 colon = test system: HCT-15 colon
MDA-MB-435 = test system: MDA-MB-435
T-47D breast = test system: T-47D breast
UO-31 renal = test system: UO-31 renal
SR leukemia = test system: SR leukemia
K-562 leukemia = test system: K-562 leukemia
TK-10 renal = test system: TK-10 renal
MALME-3M melanoma = test system: MALME-3M melanoma
DLD-1 colon = test system: DLD-1 colon

Row | SMILES | TGI (OVCAR-3 ovarian) [µM] | TGI (HCT-15 colon) [µM] | TGI (MDA-MB-435) [µM] | TGI (T-47D breast) [µM] | TGI (UO-31 renal) [µM] | TGI (SR leukemia) [µM] | TGI (K-562 leukemia) [µM] | TGI (TK-10 renal) [µM] | TGI (MALME-3M melanoma) [µM] | GI50 (OVCAR-3 ovarian) [µM] | GI50 (HCT-15 colon) [µM] | GI50 (MDA-MB-435) [µM] | GI50 (T-47D breast) [µM] | GI50 (UO-31 renal) [µM] | GI50 (SR leukemia) [µM] | GI50 (K-562 leukemia) [µM] | GI50 (TK-10 renal) [µM] | GI50 (MALME-3M melanoma) [µM] | TGI (DLD-1 colon) [µM]
1 | Cc1ncc(CO)c(C=NCCCCCCN=Cc2c(CO)cnc(C)c2O)c1O | > 100 | > 100 | > 100 | > 100 | > 100 | > 100 | > 100 | > 100 | > 100 |  |  |  |  |  |  |  |  |  | 
2 | Cc1ccc(S(=O)(=O)Nc2cc(Sc3ccccc3)c(O)c3ccccc23)cc1 | 8.24 | 25.1 | 3.26 | 5.99 | 10.9 | 12.6 | 10.7 | 31.7 | 19.6 | 2.85 | 6.81 | 1.8 | 2.25 | 2.88 | 3.27 | 3.38 | 17.5 | 7.17 | 
3 | COc1cc(Cc2ccc3c(c2C#N)N(C)c2ccccc2S3)cc(OC)c1OC | > 100 | 61.3 |  |  | > 100 | > 100 | > 100 | > 100 | > 100 |  |  |  |  |  |  |  |  |  | > 100
4 | Cc1nc(N(CCO)CCO)c2sc(=S)n(-c3ccccc3)c2n1 | > 100 |  |  |  | > 100 | > 100 | > 100 | > 100 | > 100 |  |  |  |  |  |  |  |  |  | > 100
5 | COc1cc(C2S/C(=C/c3ccccc3)C(=O)N2c2ccccc2Cl)cc(OC)c1OC (stereo not given) |  | > 100 | 56.7 | 32.1 | > 100 |  |  | > 100 | 82.1 |  |  |  |  |  |  |  |  |  | 
6 | CN(CCO)/N=N/c1nc[nH]c1C(N)=O | > 100 | > 100 |  |  |  | > 100 |  | > 100 | > 100 |  |  |  |  |  |  |  |  |  | > 100
7 | C/C(=N\NC(=S)Nc1ccc(Cl)cc1)c1nc2ncccc2[nH]1 | 10.5 | 14.5 | 15.1 | 20.9 | 5.13 | > 100 | 44.2 | 5.12 | 15.7 |  |  |  |  |  |  |  |  |  | 
8 | O=c1oc2c(ccc3c(O)cccc32)c2c1CCCC2 | > 100 |  | > 100 | > 100 | > 100 | > 100 | > 100 | > 100 | > 100 |  |  |  |  |  |  |  |  |  | 
9 | BrC1=CN2C[n+]3cc(Br)c4ccccc4c3N=C2c2ccccc21 | 8.86 | > 100 | 19.2 | 18.8 | > 100 | 9.01 | 39.5 | 55 | 7.14 |  |  |  |  |  |  |  |  |  | 
10 | CCOC(=O)/C(=N/Nc1ccc(Cl)cc1)N1C(=S)C=C(C)NN(C)C1=S | > 100 | > 100 | > 100 | 98.3 | > 100 | > 100 | > 100 | > 100 |  |  |  |  |  |  |  |  |  |  | 
11 | COc1cc2nc(N3CCC[C@@H](NC4=CC(=O)c5ccccc5C4=O)C3)nc(N)c2cc1OC | 3.81 | 6.02 | 4.14 | 3.74 | 3.25 | 0.892 | 2.36 | 3.85 |  | 2.03 | 2.31 | 2 | 1.95 | 1.62 | 0.266 | 0.427 | 2.1 |  | 
12 | NC(=S)N/N=C/c1ccc(OC(=O)COc2ccccc2Cl)cn1 | 99.1 | > 100 |  |  | 98.5 |  | > 100 |  | > 88.7 |  |  |  |  |  |  |  |  |  | > 100
13 | CCOC(=O)C(=O)Nc1cccc(C)c1C | > 100 | > 100 |  |  | > 100 | > 100 | > 100 | > 100 | > 100 |  |  |  |  |  |  |  |  |  | > 100
14 | C/C([O-])=C(/c1nc(-c2ccc([N+](=O)[O-])o2)no1)[n+]1cc(C)ccc1C | 37.7 | 22.3 |  |  | 40 |  | > 51.9 |  | 28.2 |  |  |  |  |  |  |  |  |  | 24.7
15 | COC(=O)C1=C(O)C(C(=O)OC)[C@@]2(O)[C@@H](C(=O)OC)CC[C@@H]1[C@@H]2C(=O)OC (stereo not given in full) | 58.8 | 64.2 | > 100 | > 100 | > 100 | 63.9 | > 100 | 93.4 | 74.3 |  |  |  |  |  |  |  |  |  | 
16 | O=C(O)CN=c1c2ccccc2n(O)c2ccccc12 | > 100 | > 100 |  |  | > 100 |  | 26.9 | > 100 | > 100 |  |  |  |  |  |  |  |  |  | > 100
